In PubChem BioAssay (NCI):
Several values for one entry are separate records, joined by “and”; a condition that tells them apart may be missing. Equal values may be shown once.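 In this assay, cells in 96-well plates receive the compound at five concentrations for 48 hours. Endpoints are linearly interpolated between the surrounding concentrations. Here, GI50 denotes the concentration required for 50% inhibition of growth. TGI: concentration producing complete growth inhibition.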

Columns and labels:
Assay in all cases: growth of human tumour cells (NCI), 48 h
[1] = tested on: HOP-92 NSCLC
[2] = tested on: 786-0 renal
[3] = tested on: RPMI-8226 leukemia
[4] = tested on: MDA-MB-231 breast
[5] = tested on: DU-145 prostate
[6] = tested on: MCF7 breast
[7] = tested on: COLO 205 colon
[8] = tested on: UACC-257 melanoma

SMILES | GI50 [1] [µM] | TGI [1] | GI50 [2] [µM] | TGI [2] | GI50 [3] [µM] | TGI [3] | GI50 [4] [µM] | TGI [4] | GI50 [5] [µM] | TGI [5] | GI50 [6] [µM] | TGI [6] | GI50 [7] [µM] | TGI [7] | GI50 [8] [µM] | TGI [8]
O=C(c1ccccc1)C(Br)C(Br)c1ccccc1 (configuration not stated) | 2.53 | 6 µM | 15.2 | 28.7 µM | 3.44 | 8.11 µM | 14 | 29 µM | 3.08 | 9.63 µM | 1.79 | 7.85 µM | 1.92 | 3.5 µM | 3.2 | 8.04 µM
N/C(=N\C(N)=N\c1nc2ccccc2s1)c1cnccn1 | 3.05 | 16.1 µM | 2.97 | > 100 µM | 3.2 | > 100 µM | 3.91 | > 100 µM | 4.34 | > 100 µM | 3.16 | > 100 µM |  |  | 2.13 | 5.26 µM
COc1ccc(OCC(O)CN2CCN(c3ccc(Cl)cc3)CC2)cc1 (configuration not stated) | 3.99 | > 100 µM | > 100 | > 100 µM | > 100 | > 100 µM | 66.1 | > 100 µM | > 100 | > 100 µM | > 100 | > 100 µM | > 100 | > 100 µM | > 100 | > 100 µM
CC1OC(OC2C(O[C@H]3CC[C@@]4(C)C(=CC[C@H]5[C@@H]6C[C@@H]7O[C@]8(CC[C@@H](C)CO8)[C@@H](C)[C@@H]7[C@@]6(C)CC[C@@H]54)C3)OC(CO)C(OC3OC(CO)C(O)C3O)C2O)C(O)C(O)C1O (some centres not stated) | 1.22 | 1.98 µM and 2.46 µM | 0.221 | 1.34 µM and 0.464 µM | 0.212 | 2.71 µM and 0.586 µM | 0.497 | 1.6 µM and 1.65 µM |  | 2.26 µM and 2.15 µM | 1.11 | 1.52 µM and 2.3 µM | 0.381 | 1.24 µM and 1.29 µM | 1.14 | 1.71 µM and 2.35 µM
COc1ccc(/C=C\c2cc(OC)c(OC)c(OC)c2)c(NS(=O)(=O)c2ccc(C(C)(C)C)cc2)c1O | 0.189 | 5.92 µM | 0.49 | 14.6 µM | 0.508 | 25.6 µM | 0.358 | 16.9 µM | 0.395 | 12.5 µM | 0.133 | 15.7 µM | 3.32 | 12.5 µM | 13.2 | 32.1 µM
O=C(Nc1ccc(C(F)(F)F)cc1[N+](=O)[O-])c1cccnc1 |  |  |  | > 100 µM |  | > 100 µM |  | > 100 µM |  | > 100 µM |  |  |  | > 100 µM |  | > 100 µM
CC1=C(CNO)C2=C(C)C3(CC3)[C@@](C)(O)C(=O)C2=C1 | 1.12 | 4.62 µM | 2.53 | 6.88 µM | 21.1 | 72.9 µM | 2.03 | 7.14 µM | 0.375 | 5.5 µM | 0.763 | 6.73 µM | 1.09 | 3.83 µM | 2.78 | 7.64 µM
NC(=O)c1ncn(C2OC(CO)C(O)C2O)c1N (configuration not stated) | > 100 | > 100 µM | > 100 | > 100 µM | > 100 | > 100 µM | > 100 | > 100 µM | 72.2 | > 100 µM | > 100 | > 100 µM | > 100 | > 100 µM | > 100 | > 100 µM
c1cncc(C2ONC3=NCCN32)c1 (configuration not stated) |  |  | 6.22 | 39.2 µM |  |  | 32.3 | > 100 µM | 15.8 | > 100 µM | 17.5 | > 100 µM | 27.7 | > 100 µM | > 100 | > 100 µM
O=C(OC[C@@H]1CO1)c1cccc2c(=O)c3ccccc3[nH]c12 | 0.444 | 5.02 µM | 0.349 | 2.69 µM | 0.33 | 1.84 µM | 0.393 | 2.29 µM | 0.335 | 1.29 µM | 0.0469 | 0.642 µM | 0.246 | 1.41 µM | 0.517 | 4.31 µM
COc1cc2cc3c(c(O)c2c(O)c1-c1c(OC)cc2cc4c(c(O)c2c1O)C(=O)O[C@H](C)C4)C(=O)O[C@H](C)C3 | 31.3 | 74.3 µM | 21.1 | 64.8 µM |  |  | 16.2 | 42 µM | 15.9 | 31.2 µM |  |  | 27.2 | 78.7 µM | 22.9 | 48.8 µM
COC(=O)[C@]1(C)CCC[C@]2(C)[C@@H]1CCC13C[C@@H](C=CO1)[C@@H](C)CC32O (some centres not stated) | 22 | > 100 µM | 89.5 | > 100 µM | 7.84 | 82 µM | 65.9 | > 100 µM | 19.9 | 43.5 µM | 25.7 | > 100 µM | 64.4 | > 100 µM | 70 | > 100 µM
C=C(Cl)[C@@](Cl)(CBr)CC[C@@H](Br)C(C)(C)Cl |  | 0.807 µM | 0.0733 | 0.286 µM and 0.247 µM | 0.0688 | 1.48 µM and 0.473 µM | 0.577 |  | 0.213 | 1.18 µM and 1.82 µM | 0.432 | 2.01 µM and 0.937 µM | 0.776 |  |  | 6.2 µM and 1.83 µM
C=C(Cn1c2ccccc2c(=O)c2ccccc21)c1ccc(C(=O)Nc2ccccc2N)cc1 | 5.87 | > 100 µM | 1.89 | > 100 µM | 0.36 | 3.06 µM | 3.72 | 56 µM | > 100 | > 100 µM | > 100 | > 100 µM | 16.2 | > 100 µM | > 100 | > 100 µM
COc1ccc(/C=C/C(C)=N/OCC(=O)Nc2ccc(Cl)cc2)cc1 | 0.561 | 4.68 µM | 4.2 | 26.6 µM | 1.89 | 6.21 µM | 1.76 | 8.99 µM | 4.11 | 78.6 µM | 2.3 | 18.8 µM | 3.64 | 14 µM | 3.4 | 22.2 µM
O=c1[nH]c2ccc([N+](=O)[O-])c(Cl)c2c2ccccc12 |  |  |  | 48.3 µM |  | 33.7 µM |  | 23.6 µM |  | 11.7 µM |  | 2.23 µM |  | 26.3 µM |  | 15.6 µM
